{"source": "patent US20150071918A1", "about": "“PEPTIDES FOR THE TREATMENT OF CANCER” (H. LEE MOFFITT CANCER CENTER AND RESEARCH INSTITUTE, INC., priority 2012, published 2015)", "key": {"H929-60 cell line": {"system": "H929-60 cell line", "test": "Cross-resistance in cell line selected for resistance to HYD1", "format": "cell-based", "settings": "H929-60, selected for resistance to HYD1"}, "[1]": {"system": "CD138 cells from newly diagnosed or relapsed patients", "test": "Cell death in CD138 cells enriched from bone marrow aspirates of myeloma patients, annexin V and FACS, 24 hours", "format": "cell-based, human", "settings": "10 μM MTI-101, 24 hours", "experimental": "FIGS. 60A-60D. CD138 cells were enriched from the bone marrow aspirates of consented newly diagnosed or relapsed patients and were treated with 10 μM MTI-101, 10 μM Chloroquine or 10 nM Bortezomib or the combination of both agents. Following 24 hours of drug treatment, dell death was measured by annexin V staining and FACS analysis."}, "[2]": {"system": "Caspase 3 activity and total ATP levels in AML cell lines", "test": "Markers of cell death in AML cell lines (Caspase 3 activity, ATP levels)", "format": "cell-based", "experimental": "FIGS. 42A-42B. […] U937, HL-60 and NB4 cells were treated with varying doses of HM-27 for 24 hr and cell death was determined as described in Materials and Methods. U937 and NB4 cells (150,000) exposed to HM-27 for 24 h were collected and analyzed for Caspase 3 activity using the FITC Active Caspase-3 Apoptosis Kit (BDPharmingen) as per manufacturer's instructions. All figures are a representative of three independent experiments done in triplicates.\nFIGS. 43A-43C. Cell death in AML cell lines by HM-27 (MTI-101) is via necrosis. Drug-treated cells (50 μM for U937 and 75 μM for HL-60) were lysed in 2% Triton X-100 in PBS with protease inhibitors (Roche) and incubated on ice for 45 min with mixing every 15 min. The supernatant (lysate) was collected after centrifugation for 20 sec at 10K rcf and 4° C. […] Twenty microliters (20 μL) of the lysate was mixed with 100 μL of the (rL/L) reagent from the kit and the luminescence was measured immediately. The luminescence was corrected by subtracting the value obtained from the blank and was checked against a standard. The luminescence was then multiplied by 50 to represent the total ATP levels from the 1.2×10^6 cells collected. […]\nCells were collected after incubation with HM-27 and analyzed for markers of cell death indicative of either apoptosis, autophagy or necrosis. […] Cell death was assessed by TO-PRO-3 staining followed by FACS analysis."}, "[3]": {"system": "cleaved caspase-3, ATP in NCI-H929 and U266 MM cells", "test": "Mechanism of cell death in MM cells (cleaved caspase-3, ATP, ROS)", "format": "cell-based", "experimental": "FIGS. 56A-56F. […] FIG. 56A: Chemical structure of MTI-101 (also referred to herein as HM-27). FIG. 56B: Direct comparison of HYD1 and MTI-101 in NCI-H929 cells. […] FIG. 56F: NCI-H929 and U266 cells were treated with MTI-101 or tert-butyl hydrogen peroxide as a positive control for 1 hour, stained with CellRox Green for 30 minutes and washed, with FACS analysis to determine ROS production. All experiments were run in triplicate and repeated 3 independent times. Statistical significance using ANOVA, *P≦0.05. Similar to linear peptide HYD1, the cyclized peptide MTI-101 induces caspase independent cell death in myeloma cell lines."}, "H929 myeloma cells": {"system": "H929 myeloma cells", "format": "cell-based, human", "settings": "H929 cells", "procedure,_shortened": "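Cells exposed to a peptide concentration series for 24 h; cell death read by Topro-3 staining and FACS. IC50 from linear regression of dose-response curves, mean of 3 independent experiments.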"}}, "note": "pIC50: −log10 of the molar value. *1 amine or outer side, *2 acyl side, *3 side chain or, on linkers, in order; H or OH if unused. Where a SMILES comes first, the peptide text is derived from it. Bridges are numbered along the chain shown (N, C = ends). [ ]: non-standard residue; d: D form. The star is where a group is joined. dProlinol(O-CH2CO) = O=C(COC[C@H]1CCCN1[*:1])[*:2]; N(2-Aminoethyl)Gly = O=C(CN(CCN[*:3])[*:1])[*:2]; Nle = CCCC[C@H](N)C(=O)O; Ms = CS(=O)(=O)*"}
{"smiles": "CCCC[C@@H]1NC(=O)CN(S(C)(=O)=O)CCNC(=O)[C@H](CCCCN)NC(=O)[C@H](CC(C)C)NC(=O)[C@H](CCCCN)NC(=O)[C@H](CC(C)C)NC(=O)[C@H](CCCCN)NC(=O)COC[C@H]2CCCN2C(=O)[C@H](Cc2c[nH]c3ccccc23)NC(=O)[C@H](C)NC(=O)[C@H](C(C)C)NC(=O)[C@H](C(C)C)NC1=O", "note": "[MTI-101] (Ms-[N(2-Aminoethyl)Gly][Nle]VVAW[dProlinol(O-CH2CO)]KLKLK; lactam 1-C)", "values": [{"measurement": "cross-resistance", "setting": "H929-60 cell line", "value": "cross-resistance in the H929-60 cell line"}, {"measurement": "effect of 10 nM Bortezomib on MTI-101 activity", "setting": "[1]; newly diagnosed patients", "value": "increased the activity of MTI-101 in primary patient specimens obtained from newly diagnosed patients"}, {"measurement": "effect of 10 μM Chloroquine on MTI-101 induced cell death", "setting": "[1]; relapsed myeloma patients", "value": "increased the activity of MTI-101 induced cell death in specimens obtained from relapsed myeloma patients"}, {"measurement": "activity in primary patient specimens", "setting": "[1]; relapsed vs newly diagnosed", "value": "more active in specimens obtained from relapsed multiple myeloma (MM) patients"}, {"measurement": "ATP levels in AML cell lines", "setting": "[2]", "value": "resulted in ATP depletion"}, {"measurement": "Caspase 3 activation in AML cell lines", "setting": "[2]; 24 h", "value": "did not cause activation of Caspase 3"}, {"measurement": "cleaved caspase-3 activity in MM cells", "setting": "[3]", "value": "does not induce cleaved caspase-3 activity"}, {"measurement": "total cellular ATP in MM cells", "setting": "[3]", "value": "reduces total cellular levels of ATP in NCI-H929 and U266 cells"}, {"measurement": "pIC50", "setting": "H929 myeloma cells; read-out: IC50", "value": 5.92}, {"measurement": "fold more potent than linear HYD1", "setting": "H929 myeloma cells; reference of the 10- and 15-fold statements not expressly named", "value": 30, "unit": "fold"}]}
